Legend:
[1] = target: T1, glucocorticoid receptor (rbGR) (Oryctolagus cuniculus, UniProt P59667); experiment: Glucocorticoid receptor binding / anti-glucocorticoid receptor activity; parameters: species or system rabbit
T1 construct: cytosol containing PR or GR were prepared in TEGMD buffer; from tissue; host or cells: thymus of estradiol-primed immature rabbits (cytosol)
T1 sequence (P59667 1-772): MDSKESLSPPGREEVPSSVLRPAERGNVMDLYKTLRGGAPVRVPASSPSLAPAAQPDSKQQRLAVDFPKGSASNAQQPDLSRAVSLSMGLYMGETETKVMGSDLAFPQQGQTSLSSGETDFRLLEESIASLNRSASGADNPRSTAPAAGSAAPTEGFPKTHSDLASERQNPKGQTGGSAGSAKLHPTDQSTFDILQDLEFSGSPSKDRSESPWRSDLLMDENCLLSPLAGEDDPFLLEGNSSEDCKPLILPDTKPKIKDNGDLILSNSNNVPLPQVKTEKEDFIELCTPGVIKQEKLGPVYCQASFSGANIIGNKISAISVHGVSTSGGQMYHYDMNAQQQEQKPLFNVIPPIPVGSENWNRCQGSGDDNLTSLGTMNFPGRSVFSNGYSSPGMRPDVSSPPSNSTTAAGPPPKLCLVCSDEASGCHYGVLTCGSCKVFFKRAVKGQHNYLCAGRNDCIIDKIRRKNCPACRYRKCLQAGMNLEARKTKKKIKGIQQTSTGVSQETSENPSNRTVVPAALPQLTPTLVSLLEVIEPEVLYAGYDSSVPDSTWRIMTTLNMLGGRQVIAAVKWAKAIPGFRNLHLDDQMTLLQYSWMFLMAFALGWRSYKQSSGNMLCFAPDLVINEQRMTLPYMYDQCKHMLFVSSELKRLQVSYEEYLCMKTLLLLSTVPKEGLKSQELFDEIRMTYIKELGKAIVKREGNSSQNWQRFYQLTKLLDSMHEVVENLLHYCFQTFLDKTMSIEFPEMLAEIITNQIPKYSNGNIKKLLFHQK
Method: Certain antiprogestins were tested in receptor-binding assays for their ability to bind rabbit progesterone receptor (rbPR) and glucocorticoid receptor (rbGR). […] For PR binding, the cytosol was incubated with 6 nM 1,2-[^3H]progesterone (50.0 Ci/mmole) and competitors were added at concentrations from 2 to 100 nM. For binding to GR, the cytosol was incubated with 6 nM 6,7-[^3H]-dexamethasone (40 Ci/mmol) and test compounds were added at concentrations from 20 to 100 nM. After overnight incubation at 4 C, bound and unbound [^3H] steroids were separated by addition of dextran-coated charcoal and centrifugation at 2100×g for 15 min at 4 C. Supernatants containing the [3H]-steroid receptor complexes were decanted into vials containing 4 ml Optifluor (Packard Instrument Co.), vortexed, equilibrated in a liquid scintillation counter for 30 minutes and then counted for 2 minutes. […] The standards for the PR and GR assays were unlabeled progesterone and dexamethasone, respectively.

[2] = system: progesterone-induced endometrial proliferation in the rabbit uterus; experiment: anti-McGinty and anti-Clauberg assays (biological activity in the rabbit uterus); assay type: in vivo; conditions: in comparison to RU 486 and CDB-2914
Excerpt: Also given in Table 1 are the relative biological activities of the same compounds in the rabbit uterus by the anti-McGinty and anti-Clauberg assays. Compound CDB-2914 (listed at the end of the Table) was used as the control or reference compound (rabbit Biological Activity=1.00) for these experiments because results of experiments using CDB-2914 have been published before (Hild-Petito et al., 1996; Passaro et al., 1997; Reel et al., 1998; Lamer et al., 2000). For the anti-McGinty test, immature female rabbits received a subcutaneous injection of 5 μg estradiol in 10% ethanol/sesame oil daily for 6 consecutive days. On day 7, animals underwent sterile abdominal surgery to ligate a 3-4 cm segment of both uterine horns. The test compound in appropriate solvent was injected intraluminally into the ligated segment of one uterine horn and vehicle alone into the other. […] Five micron sections stained with hematoxylin and cosin were evaluated microscopically for the degree of endometrial glandular proliferation. The percent inhibition of endometrial proliferation for each rabbit was calculated and the mean of the group of five animals recorded. […] Five micron sections stained with hematoxylin and eosin were evaluated microscopically for the degree of endometrial glandular proliferation. […]

glucocorticoid receptor = target: T2, glucocorticoid receptor (Homo sapiens, UniProt P04150); conditions: Attardi et al., 2002; cited from earlier work
T2 sequence (P04150 1-777): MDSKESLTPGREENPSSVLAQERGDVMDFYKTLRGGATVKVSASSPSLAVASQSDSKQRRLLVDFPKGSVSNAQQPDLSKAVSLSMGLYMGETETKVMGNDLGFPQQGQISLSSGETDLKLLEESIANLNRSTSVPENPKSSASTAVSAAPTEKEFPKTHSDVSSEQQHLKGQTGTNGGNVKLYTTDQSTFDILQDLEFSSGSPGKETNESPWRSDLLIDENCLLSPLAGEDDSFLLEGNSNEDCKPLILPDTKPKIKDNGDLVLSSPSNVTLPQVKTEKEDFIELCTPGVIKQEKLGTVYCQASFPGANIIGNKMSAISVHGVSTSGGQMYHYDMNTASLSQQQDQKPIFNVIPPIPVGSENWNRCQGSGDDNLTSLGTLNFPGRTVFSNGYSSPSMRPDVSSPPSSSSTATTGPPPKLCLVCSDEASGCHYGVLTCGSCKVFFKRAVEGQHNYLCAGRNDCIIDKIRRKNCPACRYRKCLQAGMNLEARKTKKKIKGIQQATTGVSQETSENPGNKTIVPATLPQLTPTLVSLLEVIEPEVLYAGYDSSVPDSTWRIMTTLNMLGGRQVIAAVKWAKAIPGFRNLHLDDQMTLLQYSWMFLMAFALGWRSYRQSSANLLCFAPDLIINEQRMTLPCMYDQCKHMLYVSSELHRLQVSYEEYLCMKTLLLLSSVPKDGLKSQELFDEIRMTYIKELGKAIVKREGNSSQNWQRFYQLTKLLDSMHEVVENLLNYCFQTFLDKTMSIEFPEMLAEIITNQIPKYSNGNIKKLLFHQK

[3] = system: pre-menopausal adult women diagnosed with endometriosis; experiment: Six month study of Proellex (CDB-4124) in the treatment of endometriosis; assay type: in vivo, human; conditions: Lucrin
Method: Pain reduction also occurred more rapidly than with the active control, Lucrin®. The response of pain to treatment in this study was analyzed in two ways. Patients in the study maintained daily pain diaries to record the severity and frequency of pain. In addition, at each office visit, patients filled out endometriosis symptom surveys that included a questionnaire that evaluated intensity of pain on a bad day on a scale of 0-10 with 10 being the greatest intensity. […] There appeared to be a dose dependent effect on pain reduction. […] This decrease in duration of pain was statistically better (p=0.0012) than the 117.8 (74%; standard deviation 51.4 days) pain free days achieved with Lucrin®. […] Patients on CDB-4124 12.5 mg and 25 mg doses had 115.9 (66%; standard deviation 69.2 days) and 133.6 (75%; standard deviation 27.4 days) pain free days, respectively. […] The 25 mg and 12.5 mg doses of CDB-4124 were not statistically different from Lucrin®. […] The intensity of pain was assessed by the question: “On a […], with 0 being no pain and 10 being extreme pain, how intense was your pain on a bad day?” The mean scores for intensity of pain at baseline were 6.3 for the CDB-4124 groups and 6.1 for the Lucrin® group. […] At month three all four active treatment groups had statistically significant reduction in pain compared with baseline, with the following scores: 3.7 (p=0.03) for 12.5 mg CDB-4124, 3.2 (p=0.03) for 25 mg CDB-4124, 1.6 (p=0.015) for 50 mg CDB-4124 and 1.5 (p=0.016) for Lucrin®. These dose related reductions continued until month six when the values for pain intensity were 2.0 (p=0.008), 2.8 (p=0.023), 0.6 (p=0.004) and 0.7 (p=0.016), respectively. Two months after stopping treatment pain returned and was of similar intensity in all four treatment groups.

[4] = Serum corticosterone in rats; conditions: progesterone, CDB-4124 and RU-486 groups compared

In the case of `CC(=O)OCC(=O)[C@@]1(OC(C)=O)CCC2C3CCC4=CC(=O)CCC4=C3C(c3ccc(N(C)C)cc3)C[C@@]21C` (stereo partly drawn) [CDB-4059, 21-acetoxy-17α-acetoxy-11β-(4 N,N-dimethylaminophenyl)-19-norpregna-4,9-diene-3,20-dione], the “anti-glucocorticoid receptor activity / glucocorticoid receptor binding” value [1] is reported as “minimal” and the “antiprogestin activity in the rabbit uterus” value [2] is reported as “strong”.
For `CNc1ccc([C@H]2C[C@@]3(C)[C@@H](CC[C@]3(OC(C)=O)C(=O)COC)[C@@H]3CCC4=CC(=O)CCC4=C32)cc1` [CDB-4453, 21-methoxy-17α-acetoxy-11β-(4-N-methylaminophenyl)-19-norpregna-4,9-diene-3,20-dione], the “anti-glucocorticoid activity relative to parent CDB-4124” value (glucocorticoid receptor) is listed as “even lower”.
With `CCNC(=O)[C@@H]1CCCN1C(=O)[C@H](CCCNC(=N)N)NC(=O)[C@H](CC(C)C)NC(=O)[C@@H](CC(C)C)NC(=O)[C@H](Cc1ccc(O)cc1)NC(=O)[C@H](CO)NC(=O)[C@H](Cc1c[nH]c2ccccc12)NC(=O)[C@H](Cc1c[nH]cn1)NC(=O)[C@@H]1CCC(=O)N1` [Lupron®, leuprolide acetate, reference compound] the “intensity of pain on a bad day (score)” value ([3]; month six, scale 0-10, p=0.016) was 0.7 and the “intensity of pain on a bad day (score)” value ([3]; month three, scale 0-10, baseline 6.1, p=0.016) was 1.5.
In the case of `CC#C[C@]1(O)CC[C@H]2[C@@H]3CCC4=CC(=O)CCC4=C3[C@@H](c3ccc(N(C)C)cc3)C[C@@]21C` [RU 486, 11β-[p-(Dimethylamino)phenyl]-17β-hydroxy-17-(1-propynyl)estra-4,9-dien-3-one, reference compound], the “differences in serum corticosterone between treatment groups” value [4] is reported as “No differences”.

Reference: patent US8426394B2, “Progesterone antagonists such as CDB-4124 in the treatment of endometriosis, uterine fibroids, dysmenorrhea, breast cancer, etc” (Repros Therapeutics Inc., priority 2008, dated 2013)
